Reference: PMC9578396, “Intrinsic Antibacterial Activity of Xeruborbactam In Vitro: Assessing Spectrum and Mode of Action” (Antimicrobial Agents and Chemotherapy, 2022)
In brackets after ≈: the same amount, converted by molar mass. Several values for one entry are separate records, joined by “and”; a condition that tells them apart may be missing. Equal entries are not always repeated. Where two headings read alike, the source gives them in different places.

How the values were obtained:
[1] = tested on: Enterobacter cloacae species complex; test: Broth microdilution MIC (CLSI), Enterobacter cloacae; assay type: cell-based; settings: for MIC: Enterobacter cloacae
From the text: Bacterial isolates were subjected to broth microdilution susceptibility testing, performed according to Clinical and Laboratory Standards Institute (CLSI) methods ([46]), using panels prepared in-house. Meropenem was purchased from Sandoz, and all other antibiotics were from Sigma-Aldrich. Xeruborbactam was synthesized at Qpex Biopharma, San Diego, CA. Avibactam was purchased from eNovation Chemicals LLC, Bridgewater, NJ, USA; zidebactam was from MedKoo Biosciences, Inc., Morrisville, NC, and nacubactam was from Advanced ChemBlocks, Hayward, CA. Durlobactam was synthesized at Acme Bioscience, Palo Alto, CA, USA.

[2] = tested on: A. baumannii strain ATCC 17978; test: Fluorescence microscopy, cellular morphology; assay type: cell-based, Acinetobacter baumannii; settings: xeruborbactam, meropenem 1× and 2× MIC; aztreonam 2× MIC; amdinocillin 2 μg/mL
Procedure, shortened: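 K. pneumoniae KPM1026a, A. baumannii ATCC 17978 and P. aeruginosa PAM1154 grown in CA-MHB at 30°C to OD600 ≈0.12–0.15 (~2 × 10^8 CFU/mL), then compound-treated at 30°C for 1 or 2 h. Cells stained with FM4-64 (1 μg/mL), DAPI (2 μg/mL) and SYTOX green (0.5 μM), imaged on 1.2% agarose/20% LB pads.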

[3] = tested on: Klebsiella pneumoniae; test: microbe, parasite or virus in culture; assay type: cell-based; settings: for MIC90: read-out: MIC90
Procedure, shortened: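 Test organisms were KPC-producing clinical isolates (some enriched for porin mutations), matched isolates that lost KPC plasmids, and engineered porin/efflux mutant strains. Susceptibility was measured by broth microdilution following CLSI methods, using panels prepared in-house.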

[4] = Enterobacter cloacae species complex, 45 isolates
[5] = Klebsiella pneumoniae, 575 isolates
[6] = Klebsiella pneumoniae, K. pneumoniae CRE, 418 isolates
[7] = Klebsiella pneumoniae, K. pneumoniae CRE, KPC, 163 isolates
[8] = Klebsiella pneumoniae, K. pneumoniae CRE, OXA-48-like, 89 isolates
[9] = Klebsiella pneumoniae, K. pneumoniae CRE, metallo-beta-lactamase, 126 isolates
[10] = Klebsiella pneumoniae, K. pneumoniae CRE, non-carbapenemase producing, 40 isolates
[11] = Klebsiella pneumoniae, K. pneumoniae ESBL phenotype, 157 isolates
[12] = Klebsiella pneumoniae, KPC-producing clinical strains with functional OmpK36, alone
[13] = Klebsiella pneumoniae, KPC-producing clinical strains with nonfunctional OmpK36, alone
[14] = Klebsiella pneumoniae, KPC-producing clinical strains, all strains (n = 141), alone

## O=C(O)c1c(F)ccc2c1OB(O)[C@@H]1C[C@H]21 [Xeruborbactam]
[1]; [4]
  MIC50: 16 µg/mL (≈ 72.1 µM)
  MIC90: 32 µg/mL (≈ 144 µM)
  MIC range: 4 to 64 µg/mL
[1]; Enterobacter cloacae species complex isolates, read-out: highest MIC observed
  MIC: 64 µg/mL (≈ 288 µM)
[1]; clinical isolate ECL1057, OmpK35 FN, OmpK36 NF, read-out: MIC
  MIC: 64 µg/mL (≈ 288 µM)
[1]; clinical isolate ECL1079, OmpK35 NF, OmpK36 NF, read-out: MIC
  MIC: 64 µg/mL (≈ 288 µM)
[1]; clinical isolate ECL1126, OmpK35 FN, OmpK36 FN, read-out: MIC
  MIC: 16 µg/mL (≈ 72.1 µM)
[1]; clinical isolate ECL1131, OmpK35 NF, OmpK36 FN, read-out: MIC
  MIC: 16 µg/mL (≈ 72.1 µM)
[2]
  cellular morphology: cell shape deformation, from coccobacilli to a football shape
[3]; 228 isolates with the full-length OmpK36
  isolates with MIC values in an 8- to 16-μg/mL range: ~ 95%
[3]; K. pneumoniae ESBL phenotype, 157 isolates
  MIC range: 4 to 32 µg/mL
[3]; K. pneumoniae clinical isolates, OmpK36 full length (n=228)
  percentage of strains with xeruborbactam MIC values ≥32 µg/ml: 5.3%
[3]; Klebsiella pneumoniae KPM1001 (ATCC 49816)
  MIC: 16 µg/mL
[3]; Klebsiella pneumoniae KPM1001 (ATCC 49816), read-out: MIC
  MIC: 72 µM
[3]; [5]
  MIC50: 16 µg/mL
  MIC90: 32 µg/mL
[3]; Klebsiella pneumoniae, ATCC49816, Klebsiella pneumoniae KPM1001 (ATCC 49816), read-out: MIC
  MIC: 72 µM and 16 µg/mL
[3]; Klebsiella pneumoniae, BAA2814, KPC-3-producing KP1074 (BAA-2814), xeruborbactam none, read-out: MIC
  MIC: 16 to 32 µg/mL
[3]; [6]
  MIC50: 16 µg/mL
  MIC90: 32 µg/mL
[3]; [7]
  MIC50: 16 µg/mL
  MIC90: 32 µg/mL
[3]; [8]
  MIC50: 16 µg/mL
  MIC90: 64 µg/mL
[3]; [9]
  MIC50: 16 µg/mL
  MIC90: 32 µg/mL
[3]; [10]
  MIC50: 16 µg/mL
  MIC90: 32 µg/mL
[3]; [11]
  MIC50: 16 µg/mL
  MIC90: 16 µg/mL
[3]; [12]
  MIC50: 16 µg/mL
  MIC90: > 16 µg/mL
[3]; [13]
  MIC50: > 16 µg/mL
  MIC90: > 16 µg/mL
[3]; [14]
  MIC50: > 16 µg/mL
  MIC90: > 16 µg/mL
[3]; Klebsiella pneumoniae, KPM1026a (no beta-lactamase), xeruborbactam 0 µg/ml, read-out: MIC
  MIC: 16 µg/mL
[3]; Klebsiella pneumoniae, KPM1026a, alone, read-out: MIC
  MIC: 16 µg/mL
[3]; Klebsiella pneumoniae, KPM1026a, parent, read-out: MIC
  MIC: 16 µg/mL
[3]; Klebsiella pneumoniae, KPM1211 (KP1074 after loss of pKpQIL), read-out: MIC
  MIC: 16 to 32 µg/mL
[3]; Klebsiella pneumoniae, KPM1271 (KPC-3; wild type), alone, read-out: MIC
  MIC: 16 µg/mL
[3]; Klebsiella pneumoniae, KPM1271 (KPM1026a/KPC-3), alone, read-out: MIC
  MIC: 16 µg/mL
[3]; Klebsiella pneumoniae, KPM1272 (KPC-3; ramR_fs), alone, read-out: MIC
  MIC: 16 µg/mL
[3]; Klebsiella pneumoniae, KPM1273 (KPC-3; ramR_fs ompK36_1171), alone, read-out: MIC
  MIC: 64 µg/mL
[3]; Klebsiella pneumoniae, KPM1281 (KPM1026a/NDM-1), alone, read-out: MIC
  MIC: 16 µg/mL
[3]; Klebsiella pneumoniae, KPM2067 (KPC-3; ompK36_fs), alone, read-out: MIC
  MIC: 16 µg/mL
[3]; Klebsiella pneumoniae, KPM2601 (KPC-3; ΔompK35), alone
  MIC: 16 µg/mL
[3]; Klebsiella pneumoniae, KPM2631 (KPC-3; ompK36_fs ΔompK35), alone
  MIC: 32 µg/mL
[3]; Klebsiella pneumoniae, KPM3532 (TolQ::M189K), alone
  MIC: 32 µg/mL
[3]; Klebsiella pneumoniae, KPM3532, TolQ::M189K
  MIC: 32 µg/mL
[3]; Klebsiella pneumoniae, KPM3534 (TolQ::S31F), alone
  MIC: 32 µg/mL
[3]; Klebsiella pneumoniae, KPM3534, TolQ::S31F
  MIC: 32 µg/mL
[3]; Klebsiella pneumoniae, KPM4127 (KPM3532 TolQ::M189K/KPC-3), alone
  MIC: 32 µg/mL
[3]; Klebsiella pneumoniae, KPM4128 (KPM3534 TolQ::S31F/KPC-3), alone
  MIC: 32 µg/mL
[3]; Klebsiella pneumoniae, KPM4129 (KPM3532 TolQ::M189K/NDM-1), alone
  MIC: 32 µg/mL
[3]; Klebsiella pneumoniae, KPM4130 (KPM3534 TolQ::S31F/NDM-1), alone
  MIC: 32 µg/mL
[3]; Klebsiella pneumoniae, KPM4235, TolQ::IP(183–1844)PR
  MIC: 32 µg/mL
[3]; Klebsiella pneumoniae, KPM4236, TolQ::TAA at aa 103
  MIC: 32 µg/mL
[3]; Klebsiella pneumoniae, KPM4238, TolQ::S25F
  MIC: 32 µg/mL
[3]; Klebsiella pneumoniae, KPM4239, TolQ::S28F
  MIC: 32 µg/mL
